Activity calls are given as the source filed them.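 The calls were made as follows: active = compounds giving half or more protection of infected cells from virus-caused growth loss, again on retest; inactive = the rest.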

This test deals with CEM cells HIV-1 protection, formazan growth assay. The test can be described thus: NCI AIDS Antiviral Assay. The note with it: for IC50: measured here: growth of uninfected CEM cells. The essentials: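 Five concentrations of each compound were applied to infected and uninfected human CEM cells. Protection from HIV-1 was judged from growth measured with a soluble formazan assay.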

Turning to `NCCS`, the EC50 is > 1410 µM and the half-maximal inhibitory concentration (IC50) came out at 525 µM. For `Nc1sc(=S)nc2[nH]ncc12`, in that order: > 200 µM and > 200 µM. As for `CC(C)CCCCCCCCCCCCC(=O)NCC(=O)NC1C(C)OC(Nc2ncnc3c2ncn3C)C(O)C1O` (configuration not stated), the result was inactive. As for `O=S(=O)(O)NCC1OC2OC3C(CNS(=O)(=O)O)OC(OC4C(CNS(=O)(=O)O)OC(OC5C(CNS(=O)(=O)O)OC(OC6C(CNS(=O)(=O)O)OC(OC7C(CNS(=O)(=O)O)OC(OC8C(CNS(=O)(=O)O)OC(OC1C(OS(=O)(=O)O)C2OS(=O)(=O)O)C(OS(=O)(=O)O)C8OS(=O)(=O)O)C(OS(=O)(=O)O)C7OS(=O)(=O)O)C(OS(=O)(=O)O)C6OS(=O)(=O)O)C(OS(=O)(=O)O)C5OS(=O)(=O)O)C(OS(=O)(=O)O)C4OS(=O)(=O)O)C(OS(=O)(=O)O)C3OS(=O)(=O)O` (configuration not stated), the EC50 was > 50.1 µM and the IC50 is > 50.1 µM.

Consider `O=C1Nc2ccccc2C1(O)Cc1ccccn1` (configuration not stated), for which the EC50 was > 1050 µM and the concentration for half-maximal inhibition (IC50) was > 1050 µM.

For `CCOC(=O)c1nn2c(nc1=O)sc1ccc3ccccc3c12`, the EC50 is > 69.2 µM and the IC50 was > 69.2 µM.

As to `O=C1CC2(CCC(O)(c3ccco3)C(C(=O)c3ccco3)C2)C(=O)c2ccccc2N1` (configuration not stated), the EC50 is > 200 µM and the IC50 is > 200 µM. Take `CC(C)(O)CCCC1CCC2C3CCC4CCCCC4(C)C3CCC2(C)C1O` (configuration not stated): the EC50 was > 200 µM and the concentration for half-maximal inhibition (IC50) was 9.33 µM.

For the compound `CCCCNC(=S)/N=C/c1c(O)cc(C)oc1=O`, the EC50 was > 200 µM and the IC50 was > 200 µM. `C=CCC(C)(O)CCC(O)(CC=C)CC=C` (configuration not stated): the EC50 is > 200 µM and the IC50 was > 200 µM. Consider `CC1=C(C(=O)CC(=O)C(=O)Nc2ccccc2C)Sc2ccccc2N1`, for which the EC50 was > 19.5 µM and the IC50 is > 19.5 µM. Regarding `CCSc1nnc2c(-c3ccccc3)n[nH]c2n1`, the outcome was inactive. In the case of `C=CCn1c(-c2ccc(Cl)cc2Cl)csc1=Nc1c(C)n(C)n(-c2ccccc2)c1=O`, the EC50 was > 200 µM and the concentration for half-maximal inhibition (IC50) was 6.61 µM. In the same order, the values of `CN(C)CCNC(=O)c1cc([N+](=O)[O-])ccn1` are > 200 µM and 95.5 µM.

With `CCOC(=O)/N=N/C(C)(C)OC(C)=O`, the EC50 was > 200 µM and the IC50 is > 200 µM. Consider `C[C@@H](NC(=O)Nc1cccc(C(=O)Nc2cc(C(C)(C)C)ccc2C(=O)O)n1)c1ccccc1`, for which the EC50 is > 200 µM and the concentration for half-maximal inhibition (IC50) was 17.4 µM. In the same order, the values of `Nc1c(-c2nc3ccccc3[nH]2)sc(=S)n1-c1ccc(Cl)cc1` are > 14.5 µM and > 14.5 µM. As to `O=C1NC(N2CCOCC2)=N/C1=C\c1cccs1`, the EC50 was > 200 µM and the half-maximal inhibitory concentration (IC50) is > 200 µM. Consider `N#Cc1ccccc1NC(=O)C(=O)C(C(=O)c1ccccc1F)C1OC(=O)c2ccccc21` (configuration not stated), for which the EC50 is > 112 µM and the IC50 amounted to 16.2 µM. In the same order, the values of `C[C@]12CCC3=NCCCN3C1=CC[C@@H]1[C@@H]2CC[C@@]2(C)[C@H]1CC[C@]2(C)O` are > 47.9 µM and > 47.9 µM. As to `CN1C(=S)C(c2ccccc2)Sc2ccccc21` (configuration not stated), the EC50 is > 200 µM and the IC50 was determined as 42.7 µM. In the same order, the values of `CCCCCCCCSC(SCCCCCCCC)=C1C(=O)N(c2ccccc2)N=C1C` are > 28.8 µM and > 28.8 µM.

Take `CCCCC1=C(C(=O)N2CCOCC2)C2(OCCO2)C1Cl` (configuration not stated): the EC50 is > 58.9 µM and the IC50 amounted to 10 µM. In the same order, the values of `CCOC(=O)N/N=C(\Cc1ccc([N+](=O)[O-])cc1)OCC` are > 200 µM and > 200 µM.

With `N.N.N.N.N.N#Cc1nn[n-]n1.[Cl-].[Co+3]`, the EC50 is > 813 µM and the concentration for half-maximal inhibition (IC50) is > 813 µM.

On to `CC1(C)CNC[C@@](C)(O)C(=O)NC(C)(C)CNC[C@@](C)(O)C(=O)N1`, for which the EC50 was > 200 µM and the 50% inhibitory concentration (IC50) was > 200 µM. `CC(=O)OCC1OC(OC2=C(c3ccccc3)C(=O)C(OC3OC(COC(C)=O)C(OC(C)=O)C(OC(C)=O)C3OC(C)=O)=C(c3ccccc3)C2=O)C(OC(C)=O)C(OC(C)=O)C1OC(C)=O` (configuration not stated): the EC50 is > 33.9 µM and the half-maximal inhibitory concentration (IC50) stood at 5.89 µM. For the compound `CSc1nc(NC2OC(COC(C)=O)C(OC(C)=O)C(OC(C)=O)C2OC(C)=O)c(N=C(C)C(C)=O)c(=O)n1C` (configuration not stated), the result was inactive.

With `O=C(O)c1cocc1C(=O)O`, the outcome was inactive. Consider `COc1cc(C(=O)N2C[C@H](O)C[C@H]2C(=O)O)cc(OC)c1OC`, for which the EC50 was > 200 µM and the IC50 was > 200 µM.

As to `CCn1c(=O)nc2n(-c3ccc(SC)cc3)c3ccccc3nc-2c1=O`, the result was inactive.

Take `Cc1nc2c(s/c(=N\N)n2-c2ccccc2)c(=O)n1C`: the EC50 is > 13.2 µM and the IC50 was > 13.2 µM.

For the compound `COc1ccc(/C=C2\Oc3cc(OC(C)=O)ccc3C2=O)cc1`, the EC50 is > 200 µM and the concentration for half-maximal inhibition (IC50) came out at 37.2 µM. `COc1ccc(/C(=C/n2ccnc2)C(=O)c2ccc(OC)c(OC)c2)cc1`: the EC50 was > 200 µM and the IC50 was > 200 µM. For the compound `Cc1cc2c(cc1C)[n+](=O)c(C(=O)C/C(=N/NC(=O)CC#N)C(=O)Nc1ccccc1C(F)(F)F)c(C)n2[O-]`, the EC50 is > 13.2 µM and the half-maximal inhibitory concentration (IC50) is > 13.2 µM. As for `O=C1O[C@H]2[C@@H](I)[C@H]3C[C@H]2[C@H]1[C@H]3c1ccccc1`, the EC50 was > 200 µM and the IC50 is > 200 µM. Consider `CC(=O)OC12CCCCC1C1(CCCC1)NC2=O` (configuration not stated), for which the outcome was inactive.

`CC/C(=C(\CC)c1ccc(OCCCN2CCCCC2C)cc1)c1ccc(OCCCN2CCCCC2C)cc1` (configuration not stated): the EC50 is > 20 µM and the half-inhibitory concentration (IC50) is 2.29 µM.

With `COc1cc(/C=C/c2ccc3ccccc3n2)cc(OC)c1OC`, the EC50 was > 22.4 µM and the IC50 worked out at 1.48 µM. For `C(=C\c1cc(-c2ccc3ccccc3n2)nc2ccc3ccccc3c12)/c1ccc2ccccc2n1`, in that order: > 200 µM and > 200 µM. For the compound `COC(=O)C(=NNc1ccccc1[N+](=O)[O-])C(=O)OC`, the outcome was inactive. For the compound `CCCCN(CCCC)CN1C(=O)/C(=C/c2ccc(NC(C)=O)cc2)NC1=S`, the EC50 was > 200 µM and the IC50 was > 200 µM.

In the case of `Cc1ccccc1NC(=O)Cc1csc(N=Nc2c(O)[nH]c3ccccc23)n1`, the EC50 is > 200 µM and the half-maximal inhibitory concentration (IC50) is > 200 µM. With `CC(=O)Nc1cccc2cc(S(=O)(=O)O)ccc12`, the EC50 was > 200 µM and the IC50 is > 200 µM.

Consider `C/C(CC(=O)NCCc1ccccc1)=N\NC(=O)C[n+]1ccccc1`, for which the EC50 is > 95.5 µM and the IC50 was > 95.5 µM. Consider `CC1OC(OC2C(O)COC(OC3C(C)OC(OC4C(OC(=O)[C@]56CCC(C)(C)C[C@@H]5C5=CCC7[C@@]8(C)C[C@H](O)[C@H](OC9OC(CO)C(O)C(O)C9O)[C@@](C)(CO)[C@@H]8CC[C@@]7(C)[C@]5(C)CC6)OCC(O)C4O)C(O)C3O)C2O)C(O)C(O)C1O` (some centres not stated), for which the EC50 is > 100 µM and the concentration for half-maximal inhibition (IC50) came to 29.5 µM. In the same order, the values of `O=C1c2ccccc2-c2c1c1ccccc1c(=O)n2CCO` are > 34.7 µM and 1.95 µM.

As to `O=C1c2cccc3cccc(c23)C(=O)N1CCCCCCCCN1C(=O)c2cccc3cccc(c23)C1=O`, the EC50 is > 200 µM and the concentration for half-maximal inhibition (IC50) was found to be 14.8 µM.

`C/C(=C\C(=O)OCCCCCCCC(N)=O)C(O)[C@@H]1OCC(C/C=C/[C@@H](C)[C@H](C)O)[C@@H](O)[C@H]1O` (some centres not stated): the EC50 was > 200 µM and the concentration for half-maximal inhibition (IC50) was > 200 µM. As to `CCOC1(O)C(=O)c2ccccc2OC1(OCC)c1ccccc1` (configuration not stated), the EC50 was > 200 µM and the IC50 turned out to be 26.9 µM. In the case of `O=S(=O)(C1=CC(S(=O)(=O)c2ccccc2)CN(Cc2ccccc2)C1c1ccccc1)c1ccccc1` (configuration not stated), the outcome was inactive. Take `O=c1c(O)c(-c2cc(O)c(O)c(O)c2)oc2cc(O)cc(O)c12`: the EC50 is > 282 µM and the half-inhibitory concentration (IC50) amounted to 13.8 µM. For `O=C(Nc1ccc(C2=NCCN2)cc1)c1ccc(C(=O)Nc2ccc(C3=NCCN3)cc2)c([N+](=O)[O-])c1`, in that order: > 200 µM and 29.5 µM. For `Oc1c(O)c(Cc2ccccc2)c(Cc2ccccc2)c(Cc2ccccc2)c1Cc1ccccc1`, in that order: > 200 µM and 32.4 µM.

As for `C=C1C(=O)OC2C1CC1OC2C(C)CCC/C(C)=C\CCC1(C)O` (configuration not stated), the EC50 is > 525 µM and the IC50 stood at 17 µM.

On to `c1cc(C2=NCCO2)c2ccsc2c1`, for which the EC50 was > 200 µM and the IC50 came out at 155 µM. As for `NCC1CCC(C(=O)O)CC1` (configuration not stated), the EC50 was > 200 µM and the 50% inhibitory concentration (IC50) is > 200 µM. Consider `CCOC(=O)C(Cc1ccccc1)NC(=O)c1ccc(N=NN(C)C)cc1` (configuration not stated), for which the EC50 was > 51.3 µM and the half-maximal inhibitory concentration (IC50) was > 51.3 µM. In the case of `COc1c(OC)c(C2(O)C(=O)N(C)c3ccccc32)c(OC)c(OC)c1C1(O)C(=O)N(C)c2ccccc21` (configuration not stated), the EC50 is > 200 µM and the half-maximal inhibitory concentration (IC50) is > 200 µM. Turning to `COC(=O)/C(C#N)=C/n1ccc(=O)[nH]c1=S`, the EC50 was > 200 µM and the IC50 is > 200 µM. `COc1ccc2nc3c([N+](=O)[O-])ccc(NCCN(C)C)c3c(NCCN(C)C)c2c1`: the EC50 was > 200 µM and the IC50 is 1.07 µM. For `C[C@]1(CO)CCC[C@@]2(C)C1CC[C@H]1CC3C[C@]12CC[C@]3(C)O` (some centres not stated), in that order: > 23.4 µM and > 23.4 µM. As to `CCC1=CC2CC(C(=O)OC)C1(N(C)C)C2=O` (configuration not stated), the outcome was inactive. `CCOC(=O)C(C(C)=O)C(c1ccc(N(C)C)cc1)C(C(C)=O)C(=O)OCC` (configuration not stated): the EC50 is > 200 µM and the IC50 is > 200 µM.

For the compound `COC(=O)CC1CC2(C(=O)OC)c3[nH]c4ccccc4c3CCN2C1=O` (configuration not stated), the EC50 was > 224 µM and the IC50 was > 224 µM.

On to `COC(=O)NC1=Nc2ccccc2N(C(=O)Oc2ccccc2)S1`, for which the EC50 is > 75.9 µM and the concentration for half-maximal inhibition (IC50) was 9.33 µM. In the same order, the values of `CN(C)c1nncc2[nH]cnc12` are > 200 µM and > 200 µM. In the same order, the values of `CC(C)(C)c1cc2ccc(C(N)=O)cc2c(=O)[nH]1` are > 537 µM and 302 µM.

The term EC50 denotes the concentration needed to bring the measured effect to its halfway point. By IC50 is commonly meant the midpoint of a concentration-inhibition curve. Read a low IC50 as higher potency.

For the origin of these results see PubChem BioAssay AID179 (DTP/NCI, 2004).
